Reference: US20240294498A1, “FACTOR XIIA INHIBITORS” (Lunac Therapeutics Ltd, priority 2021, published 2024)

How the values were obtained:
Format in all cases: biochemical
FXIIa = biological target: T1, FXIIa (Homo sapiens, UniProt P00748); experiment: Determination of Factor XIIa inhibition (chromogenic substrate S-2302); conditions: human FXIIa alpha, Ki category
T1 construct: FXIIa alpha
T1 sequence (P00748 373-615 limits assumed): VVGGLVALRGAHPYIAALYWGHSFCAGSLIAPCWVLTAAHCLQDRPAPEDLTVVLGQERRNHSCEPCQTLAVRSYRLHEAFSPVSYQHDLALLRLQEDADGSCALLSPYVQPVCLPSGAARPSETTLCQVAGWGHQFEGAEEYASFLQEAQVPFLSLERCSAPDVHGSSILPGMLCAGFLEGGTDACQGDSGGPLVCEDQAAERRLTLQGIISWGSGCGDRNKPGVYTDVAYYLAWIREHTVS
T1 sequence (P00748 20-372 partner limits assumed): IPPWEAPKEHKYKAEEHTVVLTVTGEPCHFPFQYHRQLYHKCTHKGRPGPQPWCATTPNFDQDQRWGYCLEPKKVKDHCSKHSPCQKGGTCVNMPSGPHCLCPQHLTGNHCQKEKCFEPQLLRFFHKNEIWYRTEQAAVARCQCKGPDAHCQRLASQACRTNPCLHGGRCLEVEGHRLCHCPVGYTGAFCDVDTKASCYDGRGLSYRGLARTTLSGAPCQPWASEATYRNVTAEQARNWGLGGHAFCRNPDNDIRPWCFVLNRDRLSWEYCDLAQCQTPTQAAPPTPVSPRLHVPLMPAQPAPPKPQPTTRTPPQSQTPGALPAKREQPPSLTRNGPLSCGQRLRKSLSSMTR
In short: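 Compound preincubated with 10 nM FXIIa for 10 min at 37° C in 50 mM Tris, 137 mM NaCl, pH 7.4, 5% DMSO, top concentration 500 μM; S-2302 added at Km. pNA release followed at 405 nm for 3 h; IC50 from initial rates, converted to Ki via Ki = IC50/(1+[S]/Km).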

FXa = FXa (Homo sapiens, UniProt P00742); experiment: Determination of selectivity: FXa inhibition (chromogenic substrate S2765); conditions: fold selectivity for FXIIa over FXa (human); category
In short: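 FXa (5 nM) preincubated with increasing compound (top 500 μM) for 10 mins at 37° C in 50 mM Tris, 137 mM NaCl pH 7.4, 5% DMSO, then S2765 added at its KM. Absorbance at 405 nm followed kinetically for 3 hours; IC50 from initial rates, converted to Ki by Cheng-Prusoff.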

thrombin = biological target: T2, thrombin (Homo sapiens, UniProt P00734); experiment: Determination of selectivity: thrombin inhibition (chromogenic substrate GPR); conditions: fold selectivity for FXIIa over thrombin (human); category
T2 construct: FXa (5 nM) and thrombin (5 nM)
In short: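 Thrombin (5 nM) preincubated with increasing compound concentrations (top 500 μM, 5% DMSO) 10 min at 37 °C in 50 mM Tris, 137 mM NaCl pH 7.4, then GPR chromogenic substrate at its KM. pNA release read kinetically at 405 nm for 3 h at 37 °C. IC50 from initial rates, converted to Ki via Cheng–Prusoff.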

Chain of FXa (P00742 235-488 limits assumed): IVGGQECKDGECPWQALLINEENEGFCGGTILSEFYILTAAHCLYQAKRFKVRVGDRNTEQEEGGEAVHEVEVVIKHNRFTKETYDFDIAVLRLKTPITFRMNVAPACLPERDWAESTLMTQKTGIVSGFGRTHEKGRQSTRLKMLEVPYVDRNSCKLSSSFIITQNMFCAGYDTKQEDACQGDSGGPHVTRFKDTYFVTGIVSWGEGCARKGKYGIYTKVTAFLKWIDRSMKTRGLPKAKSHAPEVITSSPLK
Chain of FXa (P00742 41-179 partner limits assumed): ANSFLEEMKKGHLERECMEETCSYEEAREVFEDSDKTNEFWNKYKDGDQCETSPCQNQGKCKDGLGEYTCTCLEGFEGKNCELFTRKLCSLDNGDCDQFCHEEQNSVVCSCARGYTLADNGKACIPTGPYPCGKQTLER

| Structure (SMILES) | Ki (FXIIa) [µM] | FXa (human)/FXIIa alpha (human) (FXa) | Thrombin (human)/FXIIa alpha (human) (thrombin) |
| --- | --- | --- | --- |
| Cn1ncc2cc(CNC(=O)[C@@H]3C[C@@H](Cc4ccc(C(F)(F)F)cc4)CN3C(=O)[C@@H]3NCCC[C@@H]3C(=O)N3CCCC3)ccc21 [Example M05788, (2S,4R)-N-((1-methyl-1H-indazol-5-yl)methyl)-1-((2R,3S)-3-(pyrrolidine-1-carbonyl)piperidine-2-carbonyl)-4-(4-(trifluoromethyl)benzyl)pyrrolidine-2-carboxamide] | < 0.2 | ∘∘∘ | +++ (fold selectivity values greater than 100) |
| Cc1ccc(C[C@@H]2C[C@@H](C(=O)NCC3CCn4c(C)nnc4C3)N(C(=O)[C@@H]3NCCC[C@@H]3C(=O)N3CCCC3)C2)cc1 (stereo partly drawn) [Example M05913, (2S,4R)-N-[(3-mthyl-5,6,7,8-tetrahydro-[1,2,4]triazolo[4,3-a]pyidin-7-yl)methyl]-4-(p-tolylmethyl)-1-[(2R,3S)-3-(pyrrolidine-1-carbonyl)piperidine-2-carbonyl]pyrrolidine-2-carboxamide] | 0.2 to 0.8 | ∘∘∘ | +++ (fold selectivity values greater than 100) |
| Cc1ccc(C[C@@H]2C[C@@H](C(=O)NCc3ccc4c(cnn4C)c3)N(C(=O)[C@@H]3NCCC[C@@H]3C(=O)N3CC(F)C3)C2)cc1 [Example M05878, (2S,4R)-1-((2R,3S)-3-(3-fluoroazetidine-1-carbonyl)piperidine-2-carbonyl)-N-((1-methyl-1H-indazol-5-yl)methyl)-4-(4-methylbenzyl)pyrrolidine-2-carboxamide] | < 0.2 | ∘∘∘ | +++ (fold selectivity values greater than 100) |
| Cc1ccc(C[C@@H]2C[C@@H](C(=O)NCc3ccc4c(cnn4C)c3)N(C(=O)[C@@H]3NCCC[C@@H]3C(=O)N3CCNCC3)C2)cc1 [Example M05754, (2S,4R)-N-((1-methyl-1H-indazol-5-yl)methyl)-4-(4-methylbenzyl)-1-((2R,3S)-3-(piperazine-1-carbonyl)piperidine-2-carbonyl)pyrrolidine-2-carboxamide] | 0.2 to 0.8 | ∘∘∘ | +++ (fold selectivity values greater than 100) |
| Cc1ccc(C=C2C[C@@H](C(=O)NCc3ccc4c(cnn4C)c3)N(C(=O)[C@@H]3NCCC[C@@H]3C(=O)N3CCCC3)C2)cc1 (single isomer, unassigned) [Example M05844] | 0.8 to 5 | ∘∘ | ++ (a fold selectivity value of 10 to 100) |
| CCO[C@H]1CCN(C(=O)[C@H]2CCCN[C@H]2C(=O)N2C[C@H](Cc3ccc(C)cc3)C[C@H]2C(=O)NCc2ccc3c(cnn3C)c2)C1 [Example M05853, (2S,4R)-1-((2R,3S)-3-((S)-3-ethoxypyrrolidine-1-carbonyl)piperidine-2-carbonyl)-N-((1-methyl-1H-indazol-5-yl)methyl)-4-(4-methylbenzyl)pyrrolidine-2-carboxamide] | < 0.2 | ∘∘∘ | +++ (fold selectivity values greater than 100) |
| Cn1ncc2cc(CNC(=O)[C@@H]3C[C@@H](Cc4ccc(C5CC5)nn4)CN3C(=O)[C@@H]3NCCC[C@@H]3C(=O)N3CCCC3)ccc21 [Example M05997, (2S,4S)-4-[(6-cyclopropylpyridazin-3-yl)methyl]-N-[(1-methylindazol-5-yl)methyl]-1-[(2R,3S)-3-(pyrrolidine-1-carbonyl)piperidine-2-carbonyl]pyrrolidine-2-carboxamide] | 0.2 to 0.8 | ∘∘∘ | +++ (fold selectivity values greater than 100) |
| Cc1ccc(C[C@@H]2C[C@@H](C(=O)NCc3ccc4c(cnn4C)c3)N(C(=O)[C@@H]3NCCC[C@@H]3C(=O)N(C)C3CCN(C)C3)C2)cc1 (stereo partly drawn) [Example M06034, (2R,3S)-N-methyl-2-((2S,4R)-2-(((1-methyl-1H-indazol-5-yl)methyl)carbamoyl)-4-(4-methylbenzyl)pyrrolidine-1-carbonyl)-N-(1-methylpyrrolidin-3-yl)piperidine-3-carboxamide] | < 0.2 | ∘∘∘ | +++ (fold selectivity values greater than 100) |
| CO[C@H]1CCN(CCN(C)C(=O)[C@H]2CCCN[C@H]2C(=O)N2C[C@H](Cc3ccc(C)cc3)C[C@H]2C(=O)NCc2ccc3c(cnn3C)c2)C1 [Example M06128, (2R,3S)-N-(2-((S)-3-methoxypyrrolidin-1-yl)ethyl)-N-methyl-2-((2S,4R)-2-(((1-methyl-1H-indazol-5-yl)methyl)carbamoyl)-4-(4-methylbenzyl)pyrrolidine-1-carbonyl)piperidine-3-carboxamide] | < 0.2 | ∘∘∘ | +++ (fold selectivity values greater than 100) |
| COc1cc(CNC(=O)[C@@H]2C[C@@H](Cc3ccc(C)cc3)CN2C(=O)[C@@H]2NCCC[C@@H]2C(=O)N2CCCC2)cc2cnn(C)c12 [Example M05799, (2S,4R)-N-((7-methoxy-1-methyl-1H-indazol-5-yl)methyl)-4-(4-methylbenzyl)-1-((2R,3S)-3-(pyrrolidine-1-carbonyl)piperidine-2-carbonyl)pyrrolidine-2-carboxamide] | < 0.2 | ∘∘∘ | ++ (a fold selectivity value of 10 to 100) |
| Cc1ccc(C[C@@H]2C[C@@H](C(=O)NCc3ccc4c(cnn4C)c3)N(C(=O)[C@@H]3NCCC[C@@H]3C(=O)N3CCCC3)C2)s1 [Example M06030, (2S,4S)-N-((1-methyl-1H-indazol-5-yl)methyl)-4-((5-methylthiophen-2-yl)methyl)-1-((2R,3S)-3-(pyrrolidine-1-carbonyl)piperidine-2-carbonyl)pyrrolidine-2-carboxamide] | 0.2 to 0.8 | ∘∘∘ | ++ (a fold selectivity value of 10 to 100) |
| Cn1ncc2cc(CNC(=O)[C@@H]3C[C@@H](Cc4ccncc4)CN3C(=O)[C@@H]3NCCC[C@@H]3C(=O)N3CCCC3)ccc21 [Example M05811, (2S,4R)-N-((1-methyl-1H-indazol-5-yl)methyl)-4-(pyridin-4-ylmethyl)-1-((2R,3S)-3-(pyrrolidine-1-carbonyl)piperidine-2-carbonyl)pyrrolidine-2-carboxamide] | 0.8 to 5 | ∘∘∘ | ++ (a fold selectivity value of 10 to 100) |
| Cc1nnc2cc(CNC(=O)[C@@H]3C[C@@H](Cc4ccc(C(F)(F)F)cc4)CN3C(=O)[C@@H]3NCCC[C@@H]3C(=O)N3CCCC3)ccn12 [Example M05882, (2S,4R)-N-((3-methyl-[1,2,4]triazolo[4,3-a]pyridin-7-yl)methyl)-1-((2R,3S)-3-(pyrrolidine-1-carbonyl)piperidine-2-carbonyl)-4-(4-(trifluoromethyl)benzyl)pyrrolidine-2-carboxamide] | 0.8 to 5 | ∘∘∘ | +++ (fold selectivity values greater than 100) |
| Cc1ccc(C[C@@H]2C[C@@H](C(=O)NCc3ccc4c(cnn4C)c3)N(C(=O)[C@@H]3NCCC[C@@H]3C(=O)N3CCCC3)C2)cc1 [Example M05675, (2S,4R)-N-((1-methyl-1H-indazol-5-yl)methyl)-4-(4-methylbenzyl)-1-((2R,3S)-3-(pyrrolidine-1-carbonyl)piperidine-2-carbonyl)pyrrolidine-2-carboxamide] | < 0.2 | ∘∘∘ | +++ (fold selectivity values greater than 100) |
| Cc1ccc(C[C@@H]2C[C@@H](C(=O)NCc3ccc4c(cnn4C)c3)N(C(=O)[C@@H]3NCCC[C@@H]3C(=O)N3CC[C@@H](F)C3)C2)cc1 [Example M05785, (2S,4R)-1-((2R,3S)-3-((R)-3-fluoropyrrolidine-1-carbonyl)piperidine-2-carbonyl)-N-((1-methyl-1H-indazol-5-yl)methyl)-4-(4-methylbenzyl)pyrrolidine-2-carboxamide] | < 0.2 | ∘∘∘ | +++ (fold selectivity values greater than 100) |
